Consider two compounds from paper PMC7618597, “Dual Nurr1/RXR agonism of valerenic acid and synthetic mimetics enables dimer-selective Nurr1 modulation” (ACS medicinal chemistry letters, 2025).

For the data set, the system named is HEK293T cells. Description: Multiplex toxicity assay. Format: cell-based. The conditions noted are these: for toxicity at the test concentrations of the gene expression study: 2 (10 μM), 3 (1 μM), multiplex toxicity assay; for concentration at which toxic effects start: HEK293T cells, confluence, metabolic activity, pyknosis, necrosis, n=4. As for the experimental part: page 9: and 20 s of elongation at 68 °C. PCR product specificity was evaluated using a melting curve analysis ranging from 65 to 95 °C. Nurr1 target gene expression was normalized to rGAPDH mRNA expression per sample using the ΔCt-method. The following primers and annealing temperatures were used: rGAPDH (59.4 °[…]); rTH (59.4 °C): 5'-[…]); rFLRT2 (59.0 °C): 5'-[NT]); rSESN3 (62.4 °C): […]); rCRMP4 (58.0 °C): […]); rBDNF (58.0 °C): 5'-[NT]); rBIRC5 (59.4 °C): 5'-[…]); rCCND2 (59.0 °C): [NT]); rXIAP (61.1 °C): […]); rSOD2 (59.4 °C): [NT]). Multiplex toxicity assay. HEK293T cells were grown in DMEM high glucose, supplemented with 10% FCS, sodium pyruvate (1 mM), penicillin (100 U/mL), and streptomycin (100 μg/mL) at 37 °C and 5% CO2. The day before experiment, cells were seeded in 96-well plates (2 × 10^4 cells per well) in culture medium with reduced serum content (0.2%). The next day, medium was changed, maintaining the low serum content and additionally containing 0.1% DMSO with 2 (1 or 10 μM) or 3 ([…]), 0.1% DMSO with bexarotene (100 μM) or flavopiridol (100 μM) as positive controls, or 0.1% DMSO alone as untreated control. Each sample was prepared in 4 biologically independent replicates. After incubation for 24 h, the medium was changed to 90 μL culture medium without phenol red (0.2% FCS) and 10 μL Cell Counting Kit- 8 solution (CCK-8, MedChem Express #HY-[…]), and absorbance was measured after 2 h incubation at 450 nm on a Tecan Spark Cyto (Tecan Group AG) to assess metabolic activity of the cells. Thereafter, Hoechst33342 (10 μM, #ab228551, Abcam Limited, Cambridge, UK) and Live-or-Dye Nuc-Fix Red (0.05×, Biotium, Inc., Fremont, CA, 1691 USA) were added and incubated for 30 min to detect pyknosis and cellular necrosis, respectively. After incubation, a total of 3 fluorescence images per well at 10× magnification was taken to detect Hoechst33342-positive cell nuclei (Ex: 381-400 nm, Em: 414-450 nm) and Live-or- Dyepositive cells (Ex: 543-566 nm, Em: 580-611 nm), respectively, using a Tecan Spark Cyto (Tecan Group AG). Necrotic cells were counte d using CellProfiler (Version 4.2.6). Reference readings for background correction and detection of autofluorescence were taken at the same wavelengths prior to staining. Before drug administration, after the first medium exchange, 24 h after drug administration, and after fluorescence imaging cell confluence was assessed using the Tecan Spark Cyto, to account for changes in cell confluence due to drug administration and cell handling. Pyknosis was defined via a cutoff range describing the significant shift of Hoechst33342-positive signal per nuclear area in bexarotene vs. vehicle treated cells. The mean intensity/area values for each well were further normalized to the […] increment of pyknosis. […]

Turning to `Cc1c(C)n(-c2ccc(CC(=O)O)cc2)c2ccc(F)cc12` [compound 3], the “toxicity at the test concentrations of the gene expression study” value was “non-toxic” and the “concentration at which toxic effects start” value is recorded as 10 µM.

In the case of `Cc1c2c(n(-c3ccc(CC(=O)O)cc3)c1C)CCC(F)(F)C2` [compound 2], the “toxicity at the test concentrations of the gene expression study” value is listed as “non-toxic” and the “concentration at which toxic effects start” value is on record as above 30 µM.
